Experimental data from US9481687B2, “IRAK inhibitors and uses thereof” (Nimbus Iris, Inc., priority 2012, dated 2016).
Where a name gives a salt, the structure may show the parent alone.

What was measured:
[1] = system: THP-1 cells; experiment: LPS-induced cytokine production assay, TNFα; format: cell-based; conditions: Homo sapiens, 300 ng/mL LPS, 5 hours, read-out: TNF (5 h)
Protocol: (§1) Provided compounds were also assayed in an LPS (Lipopolysacharide) or R848 (TLR-7 agonist) induced cytokine (e.g. TNFα and IL8) production assay in THP-1 cells, human peripheral blood mononuclear cells (hPBMC), and whole blood. The exemplary protocol for this assay in THP-1 cells was as follows below.
(§2) THP-1 cells from ATCC (TIB-202) were cultured in RPMI Medium 1640 (Invitrogen, Cat No. A10491-01), 10% fetal bovine serum (Invitrogen, Cat No. 10099141, Lot No. 8172882) containing 100 U/mL Penicillin, 100 μg/mL streptomycin (Invitrogen, Cat No. 15140-122), and 50 uM 2-Mercaptoethanol (Invitrogen, Cat No. 21985023). LPS-EK ultra pure (Invivogen, Cat No. tlrl-peklps) was used to induce IL8 and TNFα production, that is detected in the cell culture supernatant by IL8 HTRF kit (Cisbio, Cat No. 62IL8PEB) and TNFα HTRF kit (Cisbio, Cat No. 62TNFPEB), as per manufacturer instructions. Cells were cultured in 96 well assay plates at 100,000 cells per well, and compounds diluted in final 0.3% DMSO were pre-incubated with cells for 1 hour prior to stimulation with 300 ng/mL LPS. Cytokine production in cell supernatant was measured at 5 hours for TNFα and IL8 production, and for 16 hours for IL8 production and assessment of cell viability.

[2] = biological target: T1, IRAK4 (Homo sapiens, UniProt Q9NWZ3); experiment: IRAK-4 activity inhibition assay (Caliper); format: biochemical; conditions: 3.5 nM IRAK4, 37 μM ATP, 1.5 μM Peptide 8
T1 construct: purchased CARNA Bioscience 09-145
T1 sequence (Q9NWZ3 1-460): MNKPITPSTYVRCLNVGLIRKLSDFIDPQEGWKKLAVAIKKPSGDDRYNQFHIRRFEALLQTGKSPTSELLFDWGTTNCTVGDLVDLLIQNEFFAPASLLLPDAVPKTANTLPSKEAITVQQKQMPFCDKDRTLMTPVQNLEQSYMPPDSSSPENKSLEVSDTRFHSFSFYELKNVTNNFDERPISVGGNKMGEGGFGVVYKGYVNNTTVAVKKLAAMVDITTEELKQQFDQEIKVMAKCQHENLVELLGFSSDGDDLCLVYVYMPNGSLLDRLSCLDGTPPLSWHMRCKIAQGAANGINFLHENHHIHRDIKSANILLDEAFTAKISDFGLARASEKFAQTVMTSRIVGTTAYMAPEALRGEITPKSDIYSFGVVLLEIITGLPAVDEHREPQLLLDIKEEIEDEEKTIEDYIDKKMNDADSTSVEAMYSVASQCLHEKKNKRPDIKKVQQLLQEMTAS
Protocol: A 1× kinase base buffer was prepared from 50 mM HEPES, pH 7.5 and 0.0015% Brij-35. A stop buffer was prepared from 100 mM HEPES, pH 7.5, 0.015% Brij-35, 0.2% Coating Reagent #3, and 50 mM EDTA.
Test compound was diluted to 50× of the final desired highest inhibitor concentration in reaction by 100% DMSO. 100 ul of this compound dilution was transferred to a well in a 96-well plate.
Test compound was serially diluted by transferring 30 μl to 60 μl of 100% DMSO in the next well and so forth for a total of 10 concentrations. 100 μl of 100% DMSO was added to two empty wells for no compound control and no enzyme control in the same 96-well plate.
A new 96-well plate was marked as intermediate plate. 5 μl of compound serial dilution was transferred from source plate to the corresponding wells of the intermediate plate. 45 μl of 1× kinase base buffer (KB buffer) was added to each well of the intermediate plate. The intermediate plate was placed for 10 min on a shaker.
5 μl of each well was transferred from the 96-well intermediate plate to a 384-well plate in duplicates. For example, A1 of the 96-well plate is transferred to A1 and A2 of the 384-well plate. A2 of the 96-well plate is transferred to A3 and A4 of the 384-well plate, and so on.
IRAK4 and DTT in 1× kinase base buffer was added. The 2.5× enzyme mix contained 8.8 nM IRAK4 and 5 mM DTT.
Peptide 8, ATP, MgCl2 and MnCl2 were added in the 1× kinase base buffer. The 2.5× peptide mix contained 3.75 μM peptide 8, 92.5 μM ATP, 12.5 mM MgCl2 and 2.5 mM MnCl2.
Assay plate already contained 5 μl of compound in 10% DMSO. Added 10 μl of 2.5× enzyme solution to each well of the 384-well assay plate, except no enzyme control wells. The final concentration of IRAK4 in reaction was 3.5 nM. Added 10 μl of 1× kinase base buffer to no enzyme control wells in the assay plate. Incubated at room temperature for 10 min.
Added 10 μl of 2.5× peptide solution to each well of the 384-well assay plate. The final concentration of Peptide 8 and ATP was 1.5 μM and 37 μM, respectively. Incubated at 28° C. for 40 minutes. Added 25 μl of stop buffer to stop reaction. Collected data on Caliper.
Copied conversion % data from Caliper program. Converted conversion % values to percent inhibition values. Percent inhibition=(max−conversion %)/(max−min)*100, where “max” means the conversion % of DMSO control and “min” means the conversion % of no enzyme control.

[3] = system: THP-1 cells; experiment: LPS-induced cytokine production assay, IL8; format: cell-based; conditions: Homo sapiens, 300 ng/mL LPS, 16 hours, read-out: IL-8 (16 h)
Protocol: as §1, §2

SMILES | IC50 [1] [nM] | IC50 [2] [nM] | IC50 [3] [nM]
CN(C)[C@H]1CC[C@H](Oc2ncnc3sc4ccccc4c23)CC1 [I-12, (1r,4r)-4-(benzo[4,5]thieno[2,3-d]pyrimidin-4-yloxy)-N,N-dimethylcyclohexanamine] | – | 100 to 1000 | –
OCCc1ccc2sc3ncnc(O[C@H]4CC[C@H](N5CCOCC5)CC4)c3c2c1 [I-13, 2-(4-(((1r,4r)-4-morpholinocyclohexyl)oxy)benzo[4,5]thieno[2,3-d]pyrimidin-6-yl)ethanol] | – | 100 to 1000 | –
CNC(=O)c1ccc2sc3ncnc(N[C@H]4CC[C@H](N(C)C)CC4)c3c2c1 [I-14, 4-(((1r,4r)-4-(dimethylamino)cyclohexyl)amino)-N-methylbenzo[4,5]thieno[2,3-d]pyrimidine-6-carboxamide] | – | 100 to 1000 | –
OCCc1ccc2sc3ncnc(N[C@H]4CC[C@H](N5CCOCC5)CC4)c3c2c1 [I-15, 2-(4-(((1r,4r)-4-morpholinocyclohexyl)amino)benzo[4,5]thieno[2,3-d]pyrimidin-6-yl)ethanol] | – | 100 to 1000 | –
c1ccc2c(c1)sc1ncnc(O[C@H]3CC[C@H](N4CCOCC4)CC3)c12 [I-16, 4-((1r,4r)-4-(benzo[4,5]thieno[2,3-d]pyrimidin-4-yloxy)cyclohexyl)morpholine] | – | 100 to 1000 | –
CCNC(=O)c1ccc2sc3ncnc(N[C@H]4CC[C@H](N(C)C)CC4)c3c2c1 [I-17, 4-(((1r,4r)-4-(dimethylamino)cyclohexyl)amino)-N-ethylbenzo[4,5]thieno[2,3-d]pyrimidine-6-carboxamide] | – | 100 to 1000 | –
NC(=O)Cc1ccc2sc3ncnc(N[C@H]4CC[C@H](N5CCOCC5)CC4)c3c2c1 [I-18, 2-(4-(((1r,4r)-4-morpholinocyclohexyl)amino)benzo[4,5]thieno[2,3-d]pyrimidin-6-yl)acetamide] | – | 1000 to 10000 | –
CN(C)C(=O)c1ccc2sc3ncnc(N[C@H]4CC[C@H](N(C)C)CC4)c3c2c1 [I-19, 4-(((1r,4r)-4-(dimethylamino)cyclohexyl)amino)-N,N-dimethylbenzo[4,5]thieno[2,3-d]pyrimidine-6-carboxamide] | – | 1000 to 10000 | –
CN(C)C(=O)c1ccc2sc3ncnc(N[C@H]4CC[C@H](N5CCOCC5)CC4)c3c2c1 [I-20, N,N-dimethyl-4-(((1r,4r)-4-morpholinocyclohexyl)amino)benzo[4,5]thieno[2,3-d]pyrimidine-6-carboxamide] | – | 1000 to 10000 | –
CCOC(=O)Cc1ccc2sc3ncnc(N[C@H]4CC[C@H](N5CCOCC5)CC4)c3c2c1 [I-21, Ethyl 2-(4-(((1r,4r)-4-morpholinocyclohexyl)amino)benzo[4,5]thieno[2,3-d]pyrimidin-6-yl)acetate] | – | 1000 to 10000 | –
CCOC(=O)c1cccc2sc3ncnc(N[C@H]4CC[C@H](N(C)C)CC4)c3c12 [I-22, ethyl 4-(((1r,4r)-4-(dimethylamino)cyclohexyl)amino)benzo[4,5]thieno[2,3-d]pyrimidine-5-carboxylate] | – | ≥ 10000 | –
CN(C)[C@H]1CC[C@H](Nc2ncnc3sc4cccc(CO)c4c23)CC1 [I-23, (4-(((1r,4r)-4-(dimethylamino)cyclohexyl)amino)benzo[4,5]thieno[2,3-d]pyrimidin-5-yl)methanol] | – | ≥ 10000 | –

The next lines start with the values.

IC50 [1] [nM] | IC50 [2] [nM] | IC50 [3] [nM] | SMILES
≤ 1000 | ≤ 100 | ≤ 1000 | NC(=O)c1ccc2sc3ncnc(N[C@H]4CC[C@H](N5CCOCC5)CC4)c3c2c1 [I-1, 4-(((1r,4r)-4-morpholinocyclohexyl)amino)benzo[4,5]thieno[2,3-d]pyrimidine-6-carboxamide]
≤ 1000 | ≤ 100 | ≤ 1000 | CN(C)[C@H]1CC[C@H](Nc2ncnc3sc4ccccc4c23)CC1 [I-2, (1r,4r)-N1-(benzo[4,5]thieno[2,3-d]pyrimidin-4-yl)-N4,N4-dimethylcyclohexane-1,4-diamine]
≥ 1000 | ≤ 100 | ≤ 1000 | CN(CC(=O)N1CCCC1)[C@H]1CC[C@H](Nc2ncnc3sc4ccccc4c23)CC1 [I-3, 2-(((1r,4r)-4-(benzo[4,5]thieno[2,3-d]pyrimidin-4-ylamino)cyclohexyl)(methyl)amino)-1-(pyrrolidin-1-yl)ethanone]
≤ 1000 | ≤ 100 | ≤ 1000 | c1ccc2c(c1)sc1ncnc(N[C@H]3CC[C@H](N4CCOCC4)CC3)c12 [I-4, N-((1r,4r)-4-morpholinocyclohexyl)benzo[4,5]thieno[2,3-d]pyrimidin-4-amine]
≤ 1000 | ≤ 100 | ≤ 1000 | CCOC(=O)c1ccc2sc3ncnc(N[C@H]4CC[C@H](N(C)C)CC4)c3c2c1 [I-5, ethyl 4-(((1r,4r)-4-(dimethylamino)cyclohexyl)amino)benzo[4,5]thieno[2,3-d]pyrimidine-6-carboxylate]
≥ 1000 | ≤ 100 | ≤ 1000 | CN(C)[C@H]1CC[C@H](Nc2ncnc3sc4ccc(C(N)=O)cc4c23)CC1 [I-6, 4-(((1r,4r)-4-(dimethylamino)cyclohexyl)amino)benzo[4,5]thieno[2,3-d]pyrimidine-6-carboxamide]
≥ 1000 | 100 to 1000 | ≤ 1000 | CN(C)[C@H]1CC[C@H](Nc2ncnc3sc4ccc(CO)cc4c23)CC1 [I-7, (4-(((1r,4r)-4-(dimethylamino)cyclohexyl)amino)benzo[4,5]thieno[2,3-d]pyrimidin-6-yl)methanol]
– | 100 to 1000 | – | CCOC(=O)c1ccc2sc3ncnc(N[C@H]4CC[C@H](N5CCOCC5)CC4)c3c2c1 [I-8, Ethyl 4-(((1r,4r)-4-morpholinocyclohexyl)amino)benzo[4,5]thieno[2,3-d]pyrimidine-6-carboxylate]
≥ 1000 | 100 to 1000 | ≤ 1000 | CN[C@H]1CC[C@H](Nc2ncnc3sc4ccccc4c23)CC1 [I-9, (1r,4r)-N1-(benzo[4,5]thieno[2,3-d]pyrimidin-4-yl)-N4-methylcyclohexane-1,4-diamine]
– | 100 to 1000 | – | OCc1ccc2sc3ncnc(N[C@H]4CC[C@H](N5CCOCC5)CC4)c3c2c1 [I-10, (4-(((1r,4r)-4-morpholinocyclohexyl)amino)benzo[4,5]thieno[2,3-d]pyrimidin-6-yl)methanol]
– | 100 to 1000 | – | N[C@H]1CC[C@H](Nc2ncnc3sc4ccccc4c23)CC1 [I-11, (1r,4r)-N1-(benzo[4,5]thieno[2,3-d]pyrimidin-4-yl)cyclohexane-1,4-diamine hydrochloride]
